In patent publication US20210308077A1, “COMBINATIONS INCLUDING BETA-ADRENORECEPTOR AGONISTS FOR TREATMENT OF PARKINSON`S DISEASE AND MOVEMENT DISORDERS” (The Brigham and Women`s Hospital, Inc., priority 2017, published 2021):

Key:
[1] = system: NPCs carrying the SNCA triplication; assay: MitoSox assay of mitochondria-associated superoxide in SNCA-triplication NPCs exposed to rotenone; assay type: cell-based, human; details: 20 μM rotenone, 20 μM clenbuterol
Description: Patient-derived NPCs carrying the familial SNCA triplication were generated as described previously (28). NPCs were seeded at […] in 96-well plates (Greiner Cellcoat μClear) for HTS plate reader analysis (Polarstar Omega, BMG). For experiments with toxicants and inhibitors, NPCs were cultured under the following conditions for 18 hours unless specified differently in the experiment procedures: Standard NPC growth medium, growth medium plus 20 μM rotenone (Sigma).
For the Plate Reader HTS, each experiment was conducted with 6 replicates per cell line and treatment regimen. NPCs were treated with 20 μM clenbuterol for four days. Signals from individual wells were acquired with integration of fluorescence signals over 1 second duration by bottom read in orbital mode (8-spot measurements with 2 mm radius). […]
For the MitoSox assay for the detection of mitochondria-associated superoxide levels, adherent NPCs in 96-well plates were incubated with 2 μM MitoSOX™ (Ex./Em. 510/580 nm) and MitoTracker® Green (485/520 nm) (both Life Technologies) in high glucose without phenol red (Life Technologies), containing supplements without antioxidants (Life Technologies) for 15 min at 37° C. in the dark. […] Fluorescence was detected by sequential readings, and MitoSOX™ signals were normalized to mitochondrial content (Mitotracker®) and cell number (Hoechst).

[2] = system: α-synuclein protein and SNCA mRNA; assay: SNCA expression in SNCA-triplication iPSC-derived neuronal progenitor cells; assay type: cell-based, human; details: SNCA-triplication NPCs, 20 μM
Description: The derivation and culture of the WIBR-IPS-αSyn^TRPLline has been described previously (27).
To initiate differentiation, iPSC colonies were pretreated for 30-60 min with 5 μM Y-27632, a ROCK inhibitor (Calbiochem). They were single cell-dissociated after 5-10 minute exposure to accutase (StemProAccutase; Life Technologies) and then re-suspended in neural base (NB) medium, which is DMEM/F12 (Gibco/Life Technologies) supplemented with 0.5% N2 and 1% B27 (Life Technologies). […]
Total RNA from flash-frozen mice brain tissue, rodent primary cells, human neuroblastoma cells and iPSC-derived neuronal cells was isolated using TRIzol® (Life Technologies) following the manufacturer's protocol. RNA concentration was measured using NanoDrop spectrophotometer (Thermo Fisher Scientific, Wilmington, De.). […] Quantitative PCR was performed using TaqMan Universal PCR Master Mix (Applied Biosystems) on an ABI 7900HT instrument (Applied Biosystems) as described previously (31). […] Expression values were analyzed using the comparative threshold cycle method (31). […]

In the case of `CC(C)(C)NCC(O)c1cc(Cl)c(N)c(Cl)c1` (stereo not drawn) [clenbuterol], the “mitochondria associated superoxide production” value [1] is reported as “ameliorated this increased mitochondria associated superoxide production”, the “SNCA mRNA expression” value ([2]; 3 days, P<0.005) is reported as “significantly reduced” and the “endogenous α-synuclein protein” value ([2]; 4 days, P<0.05) is reported as “significantly reduced”.
